Experiment [1] has as its target T1, human CYP11B1 (Homo sapiens, UniProt P15538).
T1 construct: expressed in transfected cells
T1 sequence (P15538 25-503): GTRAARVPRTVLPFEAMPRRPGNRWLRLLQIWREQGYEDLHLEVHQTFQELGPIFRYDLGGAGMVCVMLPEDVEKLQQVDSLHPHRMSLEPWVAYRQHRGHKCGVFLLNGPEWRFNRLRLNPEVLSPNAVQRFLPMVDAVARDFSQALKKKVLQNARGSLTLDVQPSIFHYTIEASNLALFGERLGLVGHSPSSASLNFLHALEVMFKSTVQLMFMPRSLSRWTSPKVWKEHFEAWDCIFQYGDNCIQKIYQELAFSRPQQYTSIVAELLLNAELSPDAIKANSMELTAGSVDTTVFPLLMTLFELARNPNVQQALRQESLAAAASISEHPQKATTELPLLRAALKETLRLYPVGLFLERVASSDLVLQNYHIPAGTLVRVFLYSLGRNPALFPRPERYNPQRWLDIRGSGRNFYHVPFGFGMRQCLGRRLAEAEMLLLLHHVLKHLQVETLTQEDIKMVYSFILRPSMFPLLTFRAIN
The experiment in a line: Inhibition of hCYP11B1 in transfected V79 cells. It counts as cell-based. The conditions noted are these: hamster V79 cells expressing human CYP11B1; substrate 11-deoxycortisol 200 nM. The method in brief:
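V79 hamster cells stably expressing human CYP11B1 and rat NADPH-P450 reductase were preincubated with compounds for 2 h. 11-Deoxycortisol (200 nM) was then added as substrate for 30 min before ethyl acetate quench. Substrate and product were quantified by LC-MS/MS or HPLC at 260 nm, and IC50 was derived from percent inhibition.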

The target in experiment [2] is T2, human CYP11B2 (Homo sapiens, UniProt P19099).
T2 construct: expressed in transfected cells
T2 sequence (P19099 25-503): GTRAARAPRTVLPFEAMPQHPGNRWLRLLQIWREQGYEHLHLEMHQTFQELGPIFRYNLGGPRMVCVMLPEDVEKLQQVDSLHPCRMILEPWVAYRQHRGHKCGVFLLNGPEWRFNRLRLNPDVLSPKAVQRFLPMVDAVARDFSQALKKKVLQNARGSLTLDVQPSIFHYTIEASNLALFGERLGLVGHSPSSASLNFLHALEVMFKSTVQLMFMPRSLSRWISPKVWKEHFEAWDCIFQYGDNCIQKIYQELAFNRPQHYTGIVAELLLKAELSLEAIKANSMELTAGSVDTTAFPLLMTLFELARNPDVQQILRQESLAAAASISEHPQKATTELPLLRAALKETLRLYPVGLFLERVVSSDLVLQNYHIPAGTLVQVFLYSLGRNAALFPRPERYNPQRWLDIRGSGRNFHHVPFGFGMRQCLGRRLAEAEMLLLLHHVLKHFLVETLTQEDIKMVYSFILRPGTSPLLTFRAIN
Kind of experiment: Inhibition of hCYP11B2 in transfected V79 cells. It counts as cell-based. The following applies: hamster V79 cells expressing human CYP11B2; substrate 11-deoxycorticosterone 200 nM. The method in brief:
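Hamster V79 cells stably co-expressing human CYP11B2 and rat NADPH-P450 reductase were pre-incubated with compounds for 2 hours, then given 200 nM 11-deoxycorticosterone for 30 minutes before ethyl acetate quench. Substrate and product were quantified by LC-MS/MS or HPLC at 260 nm, and IC50 was derived from percent inhibition.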

In the case of `O=S(=O)(C1CC2(COC2)C1)N1CCSc2c(-c3cc4cc(Cl)ccc4o3)cncc21` [S66, 4-((2-Oxaspiro[3.3]heptan-6-yl)sulfonyl)-8-(5-chlorobenzofuran-2-yl)-3,4-dihydro-2H-pyrido[4,3-b][1,4]thiazine], the IC50 amounted to 0.587 µM in experiment [1] and 0.0038 µM in experiment [2].
As for `N#CN1CC2(CC(S(=O)(=O)N3CCSc4c(-c5cc6cc(Cl)ccc6o5)cncc43)C2)C1` [S67, 6-((8-(5-chlorobenzofuran-2-yl)-2,3-dihydro-4H-pyrido[4,3-b][1,4]thiazin-4-yl)sulfonyl)-2-azaspiro[3.3]heptane-2-carbonitrile], the figures for the IC50 in experiment [1] and in experiment [2] were 0.603 µM and 0.0032 µM, respectively.
The matching figures for `N#Cc1ccc(-c2cncc3c2SCCN3S(=O)(=O)C2CN(C(=O)c3ccc(F)cc3)C2)cc1` [S68, 4-(4-((1-(4-Fluorobenzoyl)azetidin-3-yl)sulfonyl)-3,4-dihydro-2H-pyrido[4,3-b][1,4]thiazin-8-yl)benzonitrile]: 0.022 µM and 0.0008 µM.
For `N#Cc1ccc(-c2cncc3c2SCCN3S(=O)(=O)C2CN(C(=O)c3cccc(F)c3)C2)cc1` [S69, 4-(4-((1-(3-Fluorobenzoyl)azetidin-3-yl)sulfonyl)-3,4-dihydro-2H-pyrido[4,3-b][1,4]thiazin-8-yl)benzonitrile] the same measures were 0.073 µM and 0.0013 µM.
For `N#Cc1ccc(C(=O)N2CC(S(=O)(=O)N3CCSc4c(-c5ccc(C#N)cc5)cncc43)C2)cc1` [S70, 4-(4-((1-(4-Cyanobenzoyl)azetidin-3-yl)sulfonyl)-3,4-dihydro-2H-pyrido[4,3-b][1,4]thiazin-8-yl)benzonitrile], the IC50 in experiment [1] turned out to be 0.049 µM; in experiment [2], 0.0014 µM.
As to `N#Cc1ccc(-c2cncc3c2SCCN3S(=O)(=O)C2CN(C(=O)c3cccc(C#N)c3)C2)cc1` [S71, 3-(3-((8-(4-Cyanophenyl)-2,3-dihydro-4H-pyrido[4,3-b][1,4]thiazin-4-yl)sulfonyl)azetidine-1-carbonyl)benzonitrile], the IC50 is 0.349 µM in experiment [1] and 0.014 µM in experiment [2].
`COc1ccc(C(=O)N2CC(S(=O)(=O)N3CCSc4c(-c5ccc(C#N)cc5)cncc43)C2)cc1` [S72, 4-(4-((1-(4-Methoxybenzoyl)azetidin-3-yl)sulfonyl)-3,4-dihydro-2H-pyrido[4,3-b][1,4]thiazin-8-yl)benzonitrile]: the IC50 in experiment [1] amounted to 0.023 µM; in experiment [2] it was 0.0021 µM.
For `COc1cccc(C(=O)N2CC(S(=O)(=O)N3CCSc4c(-c5ccc(C#N)cc5)cncc43)C2)c1` [S73, 4-(4-((1-(3-Methoxybenzoyl)azetidin-3-yl)sulfonyl)-3,4-dihydro-2H-pyrido[4,3-b][1,4]thiazin-8-yl)benzonitrile] the same measures were 0.018 µM and 0.0003 µM.
Regarding `N#Cc1ccc(-c2cncc3c2SCCN3S(=O)(=O)C2CN(S(=O)(=O)c3ccc(F)cc3)C2)cc1` [S74, 4-(4-((1-((4-Fluorophenyl)sulfonyl)azetidin-3-yl)sulfonyl)-3,4-dihydro-2H-pyrido[4,3-b][1,4]thiazin-8-yl)benzonitrile], the IC50 stood at 0.022 µM in experiment [1] and 0.0017 µM in experiment [2].
For `N#Cc1ccc(-c2cncc3c2SCCN3S(=O)(=O)C2CN(S(=O)(=O)c3cccc(F)c3)C2)cc1` [S75, 4-(4-((1-((3-Fluorophenyl)sulfonyl)azetidin-3-yl)sulfonyl)-3,4-dihydro-2H-pyrido[4,3-b][1,4]thiazin-8-yl)benzonitrile] the same measures were 0.012 µM and 0.0007 µM.
The matching figures for `N#Cc1ccc(-c2cncc3c2SCCN3S(=O)(=O)C2CN(S(=O)(=O)c3ccc(C#N)cc3)C2)cc1` [S76, 4-((3-((8-(4-Cyanophenyl)-2,3-dihydro-4H-pyrido[4,3-b][1,4]thiazin-4-yl)sulfonyl)azetidin-1-yl)sulfonyl)benzonitrile]: 0.024 µM and 0.0008 µM.
Take `N#Cc1ccc(-c2cncc3c2SCCN3S(=O)(=O)C2CN(S(=O)(=O)c3cccc(C#N)c3)C2)cc1` [S77, 3-((3-((8-(4-Cyanophenyl)-2,3-dihydro-4H-pyrido[4,3-b][1,4]thiazin-4-yl)sulfonyl)azetidin-1-yl)sulfonyl)benzonitrile]: the IC50 turned out to be 0.032 µM in experiment [1] and 0.0008 µM in experiment [2].
For `COc1ccc(S(=O)(=O)N2CC(S(=O)(=O)N3CCSc4c(-c5ccc(C#N)cc5)cncc43)C2)cc1` [S78, 4-(4-((1-((4-Methoxyphenyl)sulfonyl)azetidin-3-yl)sulfonyl)-3,4-dihydro-2H-pyrido[4,3-b][1,4]thiazin-8-yl)benzonitrile] the same measures were 0.038 µM and 0.0012 µM.
As for `COc1cccc(S(=O)(=O)N2CC(S(=O)(=O)N3CCSc4c(-c5ccc(C#N)cc5)cncc43)C2)c1` [S79, 4-(4-((1-((3-Methoxyphenyl)sulfonyl)azetidin-3-yl)sulfonyl)-3,4-dihydro-2H-pyrido[4,3-b][1,4]thiazin-8-yl)benzonitrile], the IC50 in experiment [1] stood at 0.016 µM; in experiment [2], 0.0008 µM.
For `N#Cc1ccc(CN2CC(S(=O)(=O)N3CCSc4c(-c5ccc(C#N)cc5)cncc43)C2)cc1` [S80, 4-(4-((1-(4-Cyanobenzyl)azetidin-3-yl)sulfonyl)-3,4-dihydro-2H-pyrido[4,3-b][1,4]thiazin-8-yl)benzonitrile] the same measures were 0.018 µM and 0.0006 µM.
For `N#Cc1ccc(-c2cncc3c2SCCN3S(=O)(=O)C2CN(Cc3cccc(C#N)c3)C2)cc1` [S81, 3-((3-((8-(4-Cyanophenyl)-2,3-dihydro-4H-pyrido[4,3-b][1,4]thiazin-4-yl)sulfonyl)azetidin-1-yl)methyl)benzonitrile] the same measures were 0.019 µM and 0.0004 µM.
The matching figures for `N#Cc1ccc(-c2cncc3c2SCCN3S(=O)(=O)C2CN(Cc3ccc(F)cc3)C2)cc1` [S82, 4-(4-((1-(4-Fluorobenzyl)azetidin-3-yl)sulfonyl)-3,4-dihydro-2H-pyrido[4,3-b][1,4]thiazin-8-yl)benzonitrile]: 0.0094 µM and 0.0004 µM.
Take `N#Cc1ccc(-c2cncc3c2SCCN3S(=O)(=O)C2CN(Cc3cccc(F)c3)C2)cc1` [S83, 4-(4-((1-(3-Fluorobenzyl)azetidin-3-yl)sulfonyl)-3,4-dihydro-2H-pyrido[4,3-b][1,4]thiazin-8-yl)benzonitrile]: the IC50 in experiment [1] worked out at 0.021 µM; in experiment [2], 0.0008 µM.
The matching figures for `COc1ccc(CN2CC(S(=O)(=O)N3CCSc4c(-c5ccc(C#N)cc5)cncc43)C2)cc1` [S84, 4-(4-((1-(4-Methoxybenzyl)azetidin-3-yl)sulfonyl)-3,4-dihydro-2H-pyrido[4,3-b][1,4]thiazin-8-yl)benzonitrile]: 0.057 µM and 0.0011 µM.
For `COc1cccc(CN2CC(S(=O)(=O)N3CCSc4c(-c5ccc(C#N)cc5)cncc43)C2)c1` [S85, 4-(4-((1-(3-Methoxybenzyl)azetidin-3-yl)sulfonyl)-3,4-dihydro-2H-pyrido[4,3-b][1,4]thiazin-8-yl)benzonitrile], the IC50 stood at 0.037 µM in experiment [1] and 0.0009 µM in experiment [2].
As for `CC(=O)Nc1ccccc1C(=O)N1CCSc2c(-c3ccc(C#N)cc3)cncc21` [S86, N-(2-(8-(4-Cyanophenyl)-3,4-dihydro-2H-pyrido[4,3-b][1,4]thiazine-4-carbonyl)phenyl) acetamide], the IC50 in experiment [1] turned out to be 1.54 µM; in experiment [2], 0.022 µM.

Broadly, the IC50 is the concentration that inhibits the measured activity by half. A low value points to inhibition by little substance.
